The values that follow come from patent US7528205B2, “Photo radical generator, photo sensitive resin composition and article” (Dai Nippon Printing Co., Ltd., priority 2003, dated 2009).

A short description of series [1]: Evaluation 1 of curability (coating layer with trifunctional acrylate, UV exposure, no hydrogen donor). The note with it: for Reaction rate (decrement of double bond): nitrogen; for Compatibility with M305: imide part/double bond 1/50. Here is the method:
(§1) Using a trifunctional acrylate (product name; M-305, manufactured by Toagosei Co., Ltd.) as polyfunctional monomers, the compounds 1 to 14, the comparative compounds 2 and 3 and a photoradical generator Irgacure 907 (product name; manufactured by Ciba Specialty Chemicals) were mixed with each polyfunctional monomer to prepare each THF solution of each photoradical generator.
(§2) The mixing was performed so that a ratio of the photoradical generator to the polyfunctional monomer is such that number of imide part of each of the compounds 1 to 14 and the comparative compounds 2 and 3 with respect to number of double bond of the polyfunctional monomer is 1/50 (number of imide part/number of polyfunctional monomer) or, in the case of Irgacure, number of the molecule with respect to number of double bond of the polyfunctional monomer is 1/50 (number of Irgacure 907/number of polyfunctional monomer).
(§3) Each solution was applied by spin coating to a glass substrate on which chromium was sputtered to obtain coating layers. Also, a layer without initiator component or comparative compounds and only containing trifunctional acrylate was formed as a blank.
(§4) A decrement of the peak at 810 cm^−1 was recorded with time by using an infrared spectrometer (product name: FTS6000; manufactured by BIO RAD) while exposing the above coating layer to ultraviolet rays, to confirm the degree of the disappearance of a double bond. The atmosphere around the sample during measurement was replaced with nitrogen. As the UV exposure apparatus, UV Spot Cure SP-III type (standard reflecting mirror type) manufactured by Ushio Inc. was used and as the UV lamp, USH-255BY (manufactured by Ushio Inc.) was used.

Series [2] in a line: Evaluation of heat resistance (thermogravimetry, 5% reduction in weight temperature). Type of series: physicochemical. The note with it: for 5% heat decomposition temperature: temperature rise rate 10° C./min; for residue on heating: heated to 600° C. in a nitrogen atmosphere. On the procedure: Herein, the 5% reduction in weight temperature means a temperature at which the weight of a sample is reduced […] when a decrement of weight is measured using a thermogravimetric analyzer according to the same method as in the examples of the present invention as will be explained later. Similarly, the 10% reduction in weight temperature means a temperature at which the weight of a sample is reduced […].
Using a differential type differential thermal balance (product name: TG8120; manufactured by Rigaku Corporation), the 5% reduction in weight temperature of each of the compounds 1 to 15 was measured at a temperature rise rate of 10° C./min in a nitrogen atmosphere. As comparative examples, the comparative compounds 2 and 3 and a self-cleavage type photoradical generator Irgacure 907 (trademark; manufactured by Ciba Specialty Chemicals) were similarly measured.

A short description of series [3]: Evaluation 2 of curability (triethanolamine added as hydrogen donor). On the procedure: as §1, §2, §3, §4
In order to confirm whether or not the seven-membered ring imide structure-containing group was a hydrogen-drawing type radical generator, triethanolamine was added to THF solutions containing each of the compositions 1 to 14 used in the aforementioned Evaluation 1 of curability and trifunctional acrylate M305, coating layers were formed in the same manner as in the aforementioned Evaluation 1 of curability, and evaluated similarly. As comparative examples, each of the comparative compounds 1 and 3 was used.

For `CC(=O)OCCn1c(=O)c2ccccc2c2ccccc2c1=O` [Compound 2], the “Reaction rate (decrement of double bond)” value in series [1] (Exposure 50 mJ) is given as 0.1%; in series [1] (Exposure 100 mJ), 0.2%; in series [1] (Exposure 400 mJ), 1.2%; in series [3] (Exposure 50 mJ), 23.7%; in series [3] (Exposure 100 mJ), 29.4%; in series [3] (Exposure 400 mJ), 41.1%. Besides, the “Compatibility with M305” value in series [1] and in series [3] was “∘” in each case. Besides, the “5% heat decomposition temperature” value in series [2] (nitrogen atmosphere) amounted to 240 °C.

Consider `CC(=O)OCCOCCn1c(=O)c2ccccc2c2ccccc2c1=O` [Compound 3], for which the “Reaction rate (decrement of double bond)” value in series [1] (Exposure 50 mJ) stood at 0.1%; in series [1] (Exposure 100 mJ) it was 0.2%; in series [1] (Exposure 400 mJ), 0.8%; in series [3] (Exposure 50 mJ), 26.8%; in series [3] (Exposure 100 mJ), 32.7%; in series [3] (Exposure 400 mJ), 43.7%. The “Compatibility with M305” value in series [1] and in series [3] was “∘” each time. Also, in series [2] (nitrogen atmosphere), the “5% heat decomposition temperature” value was determined as 260 °C.

`CC(=O)OCC(C(C)C)n1c(=O)c2ccccc2c2ccccc2c1=O` (centres unmarked) [Compound 4]: the “Reaction rate (decrement of double bond)” value in series [1] (Exposure 50 mJ) is recorded as 0.2%; in series [1] (Exposure 100 mJ), 0.4%; in series [1] (Exposure 400 mJ) it was 0.9%; in series [3] (Exposure 50 mJ), 22.0%; in series [3] (Exposure 100 mJ), 28.2%; in series [3] (Exposure 400 mJ), 40.0%. In addition, the “Compatibility with M305” value in series [1] and in series [3] was “∘” throughout. In addition, in series [2] (nitrogen atmosphere), the “5% heat decomposition temperature” value is 208 °C.

Consider `C=COCCCn1c(=O)c2ccccc2c2ccccc2c1=O` [Compound 5], for which the “Reaction rate (decrement of double bond)” value was 0.4% in series [1] (Exposure 50 mJ); 0.7% in series [1] (Exposure 100 mJ); 2.3% in series [1] (Exposure 400 mJ); 23.8% in series [3] (Exposure 50 mJ); 29.2% in series [3] (Exposure 100 mJ); 41.0% in series [3] (Exposure 400 mJ). In addition, the “Compatibility with M305” value in series [1] and in series [3] was “∘” each time. For the same compound, the “5% heat decomposition temperature” value in series [2] (nitrogen atmosphere) was 213 °C.

In the case of `CC(=O)OCCOCCOCCn1c(=O)c2ccccc2c2ccccc2c1=O` [Compound 6], the “Reaction rate (decrement of double bond)” value in series [1] (Exposure 50 mJ) came out at 3.2%; in series [1] (Exposure 100 mJ) it was 5.4%; in series [1] (Exposure 400 mJ) it was 14.2%; in series [3] (Exposure 50 mJ), 33.1%; in series [3] (Exposure 100 mJ), 37.9%; in series [3] (Exposure 400 mJ), 47.9%. The “Compatibility with M305” value in series [1] and in series [3] was “∘” in each case. Also, the “5% heat decomposition temperature” value in series [2] (nitrogen atmosphere) worked out at 257 °C.

As to `C=CC(=O)OCCn1c(=O)c2ccccc2c2ccccc2c1=O` [Compound 7], the “Reaction rate (decrement of double bond)” value in series [1] (Exposure 50 mJ) worked out at 1.5%; in series [1] (Exposure 100 mJ) it was 3.4%; in series [1] (Exposure 400 mJ), 7.7%; in series [3] (Exposure 50 mJ), 25.3%; in series [3] (Exposure 100 mJ) it was 30.1%; in series [3] (Exposure 400 mJ) it was 41.3%. Moreover, the “Compatibility with M305” value in series [1] and in series [3] was “∘” in each case. Moreover, the residue on heating result in series [2] was “carbide was left not decomposed completely”. In addition, the “5% heat decomposition temperature” value in series [2] (nitrogen atmosphere) amounted to 233 °C.

Take `C=CC(=O)OCCOCCn1c(=O)c2ccccc2c2ccccc2c1=O` [Compound 8]: the “Reaction rate (decrement of double bond)” value was 5.0% in series [1] (Exposure 50 mJ); 7.3% in series [1] (Exposure 100 mJ); 21.4% in series [1] (Exposure 400 mJ); 36.2% in series [3] (Exposure 50 mJ); 41.4% in series [3] (Exposure 100 mJ); 51.4% in series [3] (Exposure 400 mJ). For the same compound, the “Compatibility with M305” value in series [1] and in series [3] was “∘” each time. The “heat resistance / 5% reduction in weight temperature, comparison in words” value in series [2] (10° C./min, nitrogen atmosphere) was “specifically high”. In addition, the residue on heating entry in series [2] was “carbide was left not decomposed completely”. Also, in series [2] (nitrogen atmosphere), the “5% heat decomposition temperature” value stood at 357 °C.

Take `C=CC(=O)OCCOCCOCCn1c(=O)c2ccccc2c2ccccc2c1=O` [Compound 9]: the “Reaction rate (decrement of double bond)” value is on record as 0.5% in series [1] (Exposure 50 mJ); 0.7% in series [1] (Exposure 100 mJ); 1.2% in series [1] (Exposure 400 mJ); 13.8% in series [3] (Exposure 50 mJ); 19.9% in series [3] (Exposure 100 mJ); 34.4% in series [3] (Exposure 400 mJ). The “Compatibility with M305” value in series [1] and in series [3] was “∘” throughout. Also, the “5% heat decomposition temperature” value in series [2] (nitrogen atmosphere) was found to be 295 °C.

Regarding `O=c1c2ccccc2c2ccccc2c(=O)n1CCOCCn1c(=O)c2ccccc2c2ccccc2c1=O` [Compound 10], the “Reaction rate (decrement of double bond)” value is given as 4.0% in series [1] (Exposure 50 mJ); 6.8% in series [1] (Exposure 100 mJ); 17.4% in series [1] (Exposure 400 mJ); 30.8% in series [3] (Exposure 50 mJ); 40.7% in series [3] (Exposure 100 mJ); 45.9% in series [3] (Exposure 400 mJ). The “Compatibility with M305” value in series [1] and in series [3] was “∘” in each case. The “5% heat decomposition temperature” value in series [2] (nitrogen atmosphere) is 204 °C.

As for `O=c1c2ccccc2c2ccccc2c(=O)n1CCOCCOCCOCCn1c(=O)c2ccccc2c2ccccc2c1=O` [Compound 11], the “Reaction rate (decrement of double bond)” value in series [1] (Exposure 50 mJ) turned out to be 27.9%; in series [1] (Exposure 100 mJ) it was 37.3%; in series [1] (Exposure 400 mJ) it was 42.3%; in series [3] (Exposure 50 mJ), 18.0%; in series [3] (Exposure 100 mJ), 21.3%; in series [3] (Exposure 400 mJ), 29.4%. Also, the “Compatibility with M305” value in series [1] and in series [3] was “∘” throughout. In addition, in series [2] (nitrogen atmosphere), the “5% heat decomposition temperature” value amounted to 240 °C.

As for `O=c1c2ccccc2c2ccccc2c(=O)n1CCOCCOCCOCCOCCOCCn1c(=O)c2ccccc2c2ccccc2c1=O` [Compound 12], the “Reaction rate (decrement of double bond)” value is given as 11.0% in series [1] (Exposure 50 mJ); 15.2% in series [1] (Exposure 100 mJ); 24.8% in series [1] (Exposure 400 mJ); 25.2% in series [3] (Exposure 50 mJ); 30.7% in series [3] (Exposure 100 mJ); 40.6% in series [3] (Exposure 400 mJ). Further, the “Compatibility with M305” value in series [1] and in series [3] was “∘” in each case. Moreover, the “5% heat decomposition temperature” value in series [2] (nitrogen atmosphere) is 276 °C.

As for `CSc1ccc(C(=O)C(C)(C)N2CCOCC2)cc1` [Irg907, reference compound], the “Reaction rate (decrement of double bond)” value in series [1] (Exposure 50 mJ) is 34.8%; in series [1] (Exposure 100 mJ) it was 40.8%; in series [1] (Exposure 400 mJ) it was 50.6%. In series [1], the “Compatibility with M305” value was “∘”. Further, the “5% heat decomposition temperature” value in series [2] (nitrogen atmosphere) worked out at 207 °C.
